Common to all, as to format: biochemical
One test has as its target T1, TACE (Homo sapiens, UniProt P78536).
T1 construct: purchased Immunex
The experiment in a line: Procedure for measuring TACE inhibition. Set-up: TACE % inhibition: dose or concentration left out as unconfirmed. The conditions noted are these: for IC50: read-out: TACE IC 50. How it is done:
Using 96-well black microtiter plates, each well receives a solution composed of 10 μL TACE (Inmunex, final concentration 1 μg/mL), 70 μL Tris buffer, pH 7.4 containing 10% glycerol (final concentration 10 mM), and 10 μL of test compound solution in DMSO ([…], DMSO concentration <1%) and incubated for 10 minutes at room temperature. The reaction is initiated by addition of a fluorescent peptidyl substrate (final concentration 100 μM to each well and then shaking on a shaker for 5 sec.
The reaction is read (excitation 340 nm, emission 420 nm) for 10 min. and the increase in fluorescence over time is plotted as a linear line. The slope of the line is calculated and represents the reaction rate.
The mean (xtsem) of the control rate is calculated and compared for statistical significance (p<0.05) with drug-treated rates using Dunnett's multiple comparison test.

In a further test the target is T2, MMP 1 (Homo sapiens, UniProt P03956).
T2 construct: human recombinant fibroblast collagenase (truncated, mw=18,828, WAR, Radnor)
T2 sequence (P03956 100-269 limits assumed): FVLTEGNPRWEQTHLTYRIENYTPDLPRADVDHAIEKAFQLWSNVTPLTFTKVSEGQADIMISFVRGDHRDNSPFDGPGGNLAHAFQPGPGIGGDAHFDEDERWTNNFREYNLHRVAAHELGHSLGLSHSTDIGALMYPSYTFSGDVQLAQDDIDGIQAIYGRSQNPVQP
The experiment in a line: In vitro collagenase assay (human recombinant fibroblast collagenase). Conditions: read-out: MMP 1 IC 50. Here is the method: The assay is based on the cleavage of a peptide substrate ((Dnp-Pro-Cha-Gly-Cys(iNe)-His-Ala-Lys(NMa)-NH2), Peptide International, Inc.) by collag,enase releasing the fluorescent NMa group which is quantitated on the fluorometer. Dnp quenches the NiIa fluorescence in the intact substrate. […] Substrate is dissolved in methanol and stored frozen in 1 mM aliquots. Collagenase is stored frozen in buffer in 25 µM aliquots. For the assay, substrate is dissolved in HCBC buffer to a final concentration of 10 μM and collagenase to a final concentration of 5 nM. Compounds are dissolved in methanol, DMSO, or HCBC. The methanol and DMSO are diluted in HCBC to <1.0%. Compounds are added to the 96 well plate containing enzyme and the reaction is started by the addition of substrate.
The slope of the line is calculated and represents the reaction rate.
The mean (x±sem) of the control rate is calculated and compared for statistical significance (p<0.05) with drug-treated rates using Dunnett's multiple comparison test.

The target of the next test is T3, MMP 9 (Homo sapiens, UniProt P14780).
T3 construct: from tissue; host or cells: human neutrophils
T3 sequence (P14780 94-707): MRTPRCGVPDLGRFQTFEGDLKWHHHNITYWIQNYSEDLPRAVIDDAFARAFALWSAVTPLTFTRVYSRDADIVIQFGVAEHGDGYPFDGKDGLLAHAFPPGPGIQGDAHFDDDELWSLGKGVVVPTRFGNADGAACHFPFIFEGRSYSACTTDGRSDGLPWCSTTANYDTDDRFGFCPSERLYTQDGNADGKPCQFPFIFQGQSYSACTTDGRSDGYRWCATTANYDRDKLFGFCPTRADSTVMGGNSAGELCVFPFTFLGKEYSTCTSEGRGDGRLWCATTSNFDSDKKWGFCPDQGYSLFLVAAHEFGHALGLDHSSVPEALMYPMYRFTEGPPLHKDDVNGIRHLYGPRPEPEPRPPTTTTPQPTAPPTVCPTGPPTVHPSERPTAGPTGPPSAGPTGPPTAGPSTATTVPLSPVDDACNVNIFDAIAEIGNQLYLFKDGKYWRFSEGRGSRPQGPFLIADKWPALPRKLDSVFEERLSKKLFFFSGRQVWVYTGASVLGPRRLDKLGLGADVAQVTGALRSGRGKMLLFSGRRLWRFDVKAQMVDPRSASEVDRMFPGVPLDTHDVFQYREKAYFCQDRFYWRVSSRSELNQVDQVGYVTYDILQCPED
The experiment in a line: In vitro gelatinase assay (human neutrophil gelatinase B). The conditions noted are these: read-out: MMP 9 IC 50. Here is the method:
The assay is based on the cleavage of the thiopeptide substrate ((Ac-Pro-Leu-Gly(2 mercapto-4 methyl-pentanoyl)-Leu-Gly-OEt), Bachem Bioscience) by the enzyme, gelatinase, releasing the substrate product which reacts calorimetrically with DTNB ((5,5′-dithio-bis(2-nitro-benzoic acid)). The enzyme activity is measured by the rate of the color increase.
The thiopeptide substrate is made up fresh as a 20 mM stock in 100% DMSO and the DTNB is dissolved in 100% DMSO as a 100 mM stock and stored in dark at room temperature. Both the substrate and DTNB are diluted together to 1 mM with substrate buffer (50 mM HEPES pH 7.5, 5 mM CaCl2) before use. The stock of human neutrophil gelatinase B is diluted with assay buffer (50 mnM HEPES pH 7.5, 5 mM CaCl2, 0.02% Brij) to a final concentration of 0.15 mnM.
The increase in OD405 is plotted and the slope of the line is calculated which represents the reaction rate.

For a further test, the target named is MMP 13 (Homo sapiens, UniProt P45452). The experiment in a line: MMP 13 inhibition (manual). The conditions noted are these: read-out: MMP 13 IC 50.

The results in this text go back to US6441023B1 (American Home Products Corporation, priority 1997, dated 2002).

T1 sequence (P78536 215-824): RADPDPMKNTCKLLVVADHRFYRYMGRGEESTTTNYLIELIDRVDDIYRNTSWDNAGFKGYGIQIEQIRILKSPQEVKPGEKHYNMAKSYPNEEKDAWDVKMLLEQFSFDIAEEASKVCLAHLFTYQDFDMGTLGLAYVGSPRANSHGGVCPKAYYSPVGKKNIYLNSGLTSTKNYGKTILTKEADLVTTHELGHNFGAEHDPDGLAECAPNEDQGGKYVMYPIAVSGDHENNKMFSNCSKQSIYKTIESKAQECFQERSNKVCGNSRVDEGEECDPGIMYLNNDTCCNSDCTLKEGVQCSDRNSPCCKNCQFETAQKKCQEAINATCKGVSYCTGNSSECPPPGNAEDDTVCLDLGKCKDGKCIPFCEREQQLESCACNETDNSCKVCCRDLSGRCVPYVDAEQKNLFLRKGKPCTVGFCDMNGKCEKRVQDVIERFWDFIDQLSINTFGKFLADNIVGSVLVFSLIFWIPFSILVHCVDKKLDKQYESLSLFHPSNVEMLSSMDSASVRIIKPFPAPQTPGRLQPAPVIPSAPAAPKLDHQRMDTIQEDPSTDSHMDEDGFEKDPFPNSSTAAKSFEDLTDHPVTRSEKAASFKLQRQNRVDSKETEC

For the compound `COc1ccc(S(=O)(=O)C(C)(Cc2cccc(OCCN3CCOCC3)c2)C(=O)NO)cc1` (centres unmarked) [Example 30, N-Hydroxy-2-(4-methoxy-benzenesulfonyl)-2-methyl-3-[3-(2-morpholin-1-yl-ethoxy)-phenyl]-propionamide], the “TACE % inhibition at 1 micromolar” value on TACE turned out to be 25.2%.

As for `COc1ccc(S(=O)(=O)C2(C(=O)NO)CCN(Cc3ccc(-c4cccs4)cc3)CC2)cc1` [Example 261, 4-(4-Methoxy-benzenesulfonyl)-1-(thiophen-2-yl-benzyl)-piperidine-4-carboxylic acid hydroxyamide], the IC50 is 513 nM on MMP 1 and 10.9 nM on MMP 9. In the case of `COc1ccc(S(=O)(=O)C(C)(Cc2ccc(OCCN(C(C)C)C(C)C)cc2)C(=O)NO)cc1` (centres unmarked) [Example 20, N-Hydroxy-2-(4-methoxy-benzenesulfonyl)-2-methy-3-[4-(2-N,N-diisopropylamino-ethoxy)-phenyl]-propionamide], at TACE, the “TACE % inhibition at 1 micromolar” value came to 31%. As to `Cc1ccc(CN2CCC(C(=O)NO)(S(=O)(=O)c3ccc(OCc4ccc(Cl)cc4)cc3)CC2)cc1` [Example 266, [4-(4-Chloro-benzyloxy)-benzenesulfonyl]-1-(4-methylbenzyl)-piperidine-4-carboxylic acid hydroxamide], the IC50 on MMP 9 stood at 6 nM; on TACE it was 421 nM; at MMP 13, 5.7 nM. In the same order, the values of `COc1ccc(S(=O)(=O)C(CCCCOc2ccccc2)(Cc2cccnc2)C(=O)NO)cc1` (centres unmarked) [Example 68, 2-(4-Methoxy-benzenesulfonyl)-6-phenoxy-2-pyridin-3-yhnethyl-hexanoic acid hydroxyamide] are 29 nM, 522 nM and 27 nM. As for `COc1ccc(S(=O)(=O)C(CC=C(C)C)(CC=C(C)C)C(=O)NO)cc1` [Example 79, 2-(4-Methoxy-benzenesulfonyl)-5-methyl-2-(3-methyl-but-2-enyl)-hexenoic acid hydroxyamide], the IC50 at MMP 1 came out at 25 nM; on MMP 9 it was 0.54 nM; at TACE, 805 nM. In the case of `CCCCOc1ccc(S(=O)(=O)C2(C(=O)NO)CCN(Cc3ccc(OCCN4CCCCC4)cc3)CC2)cc1` [Example 242, 4-(4-Butoxy-benzenesulfonyl)-1-[4-(2-piperidin-1-yl-ethoxy)-benzyl]-piperidine-4-carboxylic acid hydroxyamide], the IC50 amounted to 1950 nM at MMP 1, 2 nM at MMP 9 and 581 nM at TACE. Regarding `CCCCCC#CCC(CC#CCCCCC)(C(=O)NO)S(=O)(=O)c1ccc(OC)cc1` [Example 71, 2-(4-methoxy-benzenesulfonyl)-2-oct-2-ynyl-decffynoic acid hydroxyamide], the “TACE % inhibition at 1 micromolar” value at TACE was determined as 42.21%. With `CCCCOc1ccc(S(=O)(=O)C2(C(=O)NO)CCN(Cc3cccc(OCCN4CCOCC4)c3)CC2)cc1` [Example 243, 4(4-Butoxy-benzenesulfonyl)-1-[3-(2-morpholinyl-1-ylthoxy)-benzyl]-piperidine-4-carboxylic acid hydroxyamide], the IC50 was 2180 nM on MMP 1 and 506 nM at TACE. For the compound `COc1ccc(S(=O)(=O)C(Cc2ccccc2)C(=O)NO)cc1` (centres unmarked) [Example 9, N-Hydroxy-2-(4-methoxy-benzenesulfonyl)-3-phenyl-propionarmide], the “TACE % inhibition at 1 micromolar” value on TACE was 20.30%. Take `COc1ccc(SC(C)(Cc2ccccc2)C(=O)NO)cc1` (centres unmarked) [Example 1, N-Hydroxy-2-(4-methoxy-phenylsulfanyl)-2-methyl-3-phenyl-propionamnide]: the IC50 turned out to be 560 nM on MMP 9 and 193 nM at MMP 13. On TACE, the “TACE % inhibition at 1 micromolar” value is 31.62%.

“1-(Bromo-benzyl)-4-(4-methoxy-benzenesulfonyl)-piperidine-4-carboxylic acid hydroxyamide [Example 90]”: the IC50 came to 10.3 nM at MMP 9 and 71.9 nM on TACE.

Take `CCCCCCC(C(=O)NO)[S+]([O-])c1cccc(C(=O)NO)c1` (centres unmarked) [Example 188, 3-(1-Hydroxycarbamoyl-heptylsulfmyl)-benzoicacid hydroxyamide]: the “TACE % inhibition at 1 µM” value at TACE is recorded as 16.2%. Consider `CCCCCCC(Sc1cccc(C(=O)NO)c1)C(=O)NO` (centres unmarked) [Example 184], for which the TACE % inhibition at TACE is 24.8%. For the compound “(1-Hydroxycarbamoyl-propane-1 -sulfanyl)-propionic acid hydroxyamide [Example 122]”, the “TACE % inhibition at 1 µM” value at TACE was 3.1%. As to `COc1ccc([S+]([O-])C(C)(Cc2ccccc2)C(=O)NO)cc1` (centres unmarked) [Example 5, N-Hydroxy-2-(4-methoxy-benzenesulfmyl)-2-methyl-3-phenyl-propionamide], the “TACE % inhibition at 1 micromolar” value at TACE is on record as 25%. The same measure, in the same setting: with `C#CCC(CC#C)(C(=O)NO)S(=O)(=O)c1ccc(OC)cc1` [Example 73, 2-(4-Methoxy-benzenesulfonyl)-2-prop-2-ynyl-pentynoic acid hydroxyamde] the figure was 20.17%. Turning to “5-Methyl-2-(3-methyl-but-2-enyl)-2-(toluene-4-sulfonyl)-hexenoic acid hydroxyamide [Example 42]”, the IC50 at MMP 9 was determined as 50.9 nM; on TACE, 36.5 nM; at MMP 13 it was 6.2 nM.

Take `CC(C)CCOc1ccc(S(=O)(=O)C2(C(=O)NO)CCN(Cc3ccccc3)CC2)cc1` [Example 255, 1-Benzyl-4-[4-(3-methyl-butoxy)-benzenesulfonyl]-piperidine-4-carboxylic acid hydroxyamide]: the IC50 at TACE is 565 nM; at MMP 13, 1.5 nM. For `COc1ccc(S(=O)(=O)C2(C(=O)NO)CCN(CCCOc3ccccc3)CC2)cc1` [Example 105, 4-(4-Methoxy-benzenesulfony)-1-(3-phenoxy-propyl)-pipendine-4-carboxyllc acid hydroxyamide], on TACE, the “TACE % inhibition at 1 micromolar” value is 50.2%. Regarding `CCCCOc1ccc(S(=O)(=O)C2(C(=O)NO)CCN(Cc3cccc(OC)c3)CC2)cc1` [Example 260, 4-(4-butoxy-benzenesulfonyl)-1-(3-methoxy-benzyl)-piperidine-4-carboxylic acid hydroxyamide], the IC50 stood at 1490 nM at MMP 1, 2.9 nM on MMP 9 and 272 nM on TACE. Take `CN1CCC(C(=O)NO)(S(=O)(=O)c2ccc(Oc3ccc(Cl)cc3)cc2)CC1` [Example 249, 4-[4-(4-chloro-phenoxy)-benzenesulfonyl]1-methyl-piperidine-4-carboxylic acid hydroxyamide]: the values for the IC50 on MMP 9, on TACE and at MMP 13 were 2 nM, 270 nM and 1.6 nM, respectively. Consider `COc1ccc(S(=O)(=O)C(C)(Cc2ccc(OCCCN3CCN(c4cccc(Cl)c4)CC3)cc2)C(=O)NO)cc1` (centres unmarked) [Example 23, 3-(4-{3-[4-(3-Chloro-phenyl)-piperain-1-yl]-propoxy}-phenyl)-N-hydroxy-2-(4-methoxy-benzenesulfonyl)-2-methyl-propionamide], for which the “TACE % inhibition at 1 micromolar” value on TACE is listed as 40.6%. As to `CC#CCC(CC#CC)(C(=O)NO)S(=O)(=O)c1ccc(OC)cc1` [Example 72, 2-(4-Methoxy-benzenesulfonyl)-2-but-2-ynyl-hextynoic acid hydroxyamide], the “TACE % inhibition at 1 micromolar” value at TACE is 51.64%.

For `COc1ccc(S(=O)(=O)C2(C(=O)NO)CCN(Cc3ccc(-c4ccccn4)cc3)CC2)cc1` [Example 262, 4-(4-methoxy-benzenesulfonyl)-1-(4-pyridin-2-yl-benzyl)-piperidine-4-carboxylic acid hydroxyamide], the IC50 came to 422 nM at MMP 1, 6.1 nM at MMP 9 and 298 nM at TACE.
